Results: US8236984B2, “Compound and use thereof in the treatment of amyloidosis” (Pentraxin Therapeutics Ltd., priority 2007, dated 2012)

Experiments:
wild type transthyretin [1] = molecular target: T1, wild type transthyretin (Homo sapiens, UniProt P02766); experiment: Differential scanning calorimetry of transthyretin with ligand; type: binding; parameters: isolated from pooled normal human plasma, was obtained from Scipac; purchased Scipac Ltd, Sittingbourne, Kent, UK; host or cells: pooled normal human plasma; details: five fold molar excess of ligand
wild type transthyretin [2] = molecular target: T1, wild type transthyretin; experiment: Inhibition of transthyretin aggregation at acidic pH (turbidity at 400 nm); type: biochemical; parameters: isolated from pooled normal human plasma, was obtained from Scipac; purchased Scipac Ltd, Sittingbourne, Kent, UK; host or cells: pooled normal human plasma; details: wild type 3.6 μM, pH 4.4, 3 d 37° C.; for Aggregation of transthyretin, Mean (1:1): ligand 3.6 μM; for Aggregation of transthyretin, Mean (3:1): ligand 10.8 μM
Procedure: 3.3.1 Wild type transthyretin. The purified wild type transthyretin (liquid and lyophilised) used in these experiments, isolated from pooled normal human plasma, was obtained from Scipac, (Sittingbourne, Kent, UK). Protein concentration was determined by absorbance at 280 nm after correction for light scattering at 320 nm using the absorption coefficient E1 cm^1%=14.0. […] Nano electrospray ionisation mass spectrometry confirmed the presence of normal and cysteinylated transthyretin monomers (Terazaki et al, 1998) under denaturing conditions, and solvent-bound transthyretin tetramer (Nettleton et al, 1998) under mild desolvation conditions.
(§1) 3.3.2 Inhibition of transthyretin aggregation by 4ajm15: In pilot experiments, transthyretin aggregates were formed from wild type transthyretin (3.6 μM) after incubation at acidic pH for 3 d at 37° C. (Colon and Kelly, 1992). The efficacy of 4ajm15 as an inhibitor of transthyretin aggregate formation was then compared with other transthyretin ligand compounds. […] After 30 min at 37° C., the pH was adjusted to pH 4.4 (with 0.2 M sodium acetate buffer pH 4.0), and the ˜1 ml mixtures were incubated unstirred for 3 d at 37° C.
(§2) Using the same method the activities of mds84 and 4ajm15 as inhibitors of the aggregation of both wild type transthyretin and the most aggressively aggregating transthyretin variant, L55P, were evaluated in triplicate with both proteins at 3.6 μM and with one (3.6 μM) or 3 equivalents (10.8 μM) of each ligand. Wild type transthyretin was studied at pH 4.4 and L55P at pH 5.0. […] Mean values and standard deviations are shown in Table 2 and in FIG. 4, where results with 1:1 molar ratio are shown cross hatched and 3:1 molar ratio in open bars.

[3] = molecular target: T2, L55P variant transthyretin (Homo sapiens, UniProt P02766, L75P); experiment: Mass spectrometric analysis of subunit exchange; type: biochemical; parameters: made in house; details: L55P variant, decreasing molar ratios of ligand
Procedure: 4.2 Mass spectrometric analysis of subunit exchange. Recombinant wild type, L55P and V30M transthyretin variants were biosynthetically labelled with isotopes [^15N] and [^15N, ^13C] as previously described (Keetch C A et al, 2005). Immediately prior to analysis, proteins were buffer exchanged into 20 mM ammonium acetate, pH 7.0 using Micro Biospin columns (Bio-Rad, UK). The subunit composition of transthyretin was monitored as a function of time by incubating an equimolar solution (4.4 μM) of [^15N] and [^15N, ^13C] labelled proteins in the presence of 2-fold molar excess of 4ajm15 in DMSO or 2.5% DMSO alone as a control. Each experiment was carried out in triplicate at room temperature and at 4° C. as well, since it is known that subunit exchange is accelerated at low temperatures. Nanoflow ESMS was performed on a QToF2 instrument (Waters/Micromass UK, Ltd.) modified for high mass operation (Sobott et al, (2002)) and calibrated externally using caesium iodide (100 mg/ml). Each solution, 1.5 μl, was electrosprayed from gold coated borosilicate capillaries prepared in-house as described (Nettleton E J, et al, 1998). To preserve the non-covalent interactions in the transthyretin tetramer, the MS parameters applied were: capillary voltage 1.6 kV, sample cone 160 V, extractor cone 20 V, ion transfer stage pressure 7.0×10 ^−3 mbar, quadrupole analyzer pressure 9.5×10^−4 mbar and ToF analyzer pressure 1.7×10^−6 mbar. Data were processed with MassLynx software (Waters/Micromass UK, Ltd.) and are presented with minimal smoothing and without background subtraction.
This most unstable transthyretin variant rapidly undergoes spontaneous and extensive subunit exchange, as illustrated in FIG. 8. FIGS. 9-11 show the effects of decreasing molar ratios of mds84 on inhibition of subunit exchange. […] At lower molar ratios of mds84 some exchange takes place but the transthyretin molecules which bind mds84 are still completely stabilized.

[4] = molecular target: T2, L55P variant transthyretin; experiment: Inhibition of transthyretin aggregation at acidic pH (turbidity at 400 nm); type: biochemical; details: L55P 3.6 μM, pH 5.0; for Aggregation of transthyretin, Mean (1:1): ligand 3.6 μM; for Aggregation of transthyretin, Mean (3:1): ligand 10.8 μM
Procedure: as §1, §2

[5] = molecular target: T2, L55P variant transthyretin; experiment: Differential scanning calorimetry of transthyretin with ligand; type: binding; details: five fold molar excess of ligand
transthyretin = molecular target: T3, transthyretin (Homo sapiens, UniProt P02766); experiment: Intrinsic fluorescence quenching of transthyretin by ligand titration; type: binding; details: 1 μM transthyretin, PBS pH 7.4, ligand 0-2 μM, excitation 280 nm, 20° C.
T3 construct: Native tetrameric transthyretin was purified from fractionated human plasma; from tissue; host or cells: human plasma
Procedure: 3.2.1. Binding of 4ajm15 and mds84 by transthyretin. The interactions between the ligands 4ajm15 or mds84 and transthyretin were studied by monitoring intrinsic fluorescence in the emission range 300-500 nm on excitation at 280 nm using a Perkin Elmer LS55 fluorimeter and a standard 1 cm path length quartz cell at 20° C. Quenching of tryptophan was achieved by titrating 1 μM transthyretin in PBS, pH 7.4 with increasing concentrations of each ligand in the range 0-2 μM (FIG. 2A). […] At the same time the changes in 4ajm15 fluorescence upon binding to the protein were monitored in the emission range 400-600 nm and excitation at 340 nm that is the wavelength specific for 4ajm15 excitation. In these conditions, accumulation of the spectra highlights an isosbestic point at 483 nm (FIG. 2B). The same results were achieved by using mds84 (not shown). The results of the titration of 4ajm15 in presence and absence of transthyretin support a model of binding in which both the binding sites are simultaneously occupied by the palindromic ligand.
In each case increasing concentrations of ligand (0-2 μM) were added to 1 μM protein. The arrow in FIG. 2B indicates the isosbestic point at 483 nm occurring on formation of the protein ligand complex. […] The percent quenching represents ΔF/F0 where F0 is fluorescence intensity prior to the addition of ligands and AF is the decrease in fluorescence at a given ligand concentration.

Tm of wild type transthyretin with the ligand (wild type transthyretin [1]) [°C]	increase in Tm of wild type transthyretin (wild type transthyretin [1]) [°C]	Aggregation of transthyretin, Mean (1:1) (wild type transthyretin [2])	Aggregation of transthyretin, Mean (3:1) (wild type transthyretin [2])	ligand bound per mole of transthyretin for complete stabilization [3]	Aggregation of transthyretin, Mean (1:1) [4]	Aggregation of transthyretin, Mean (3:1) [4]	Tm of L55P variant transthyretin with the ligand [5] [°C]	increase in Tm of L55P variant transthyretin [5] [°C]	intrinsic fluorescence of transthyretin remaining after titration (transthyretin) [%]	Structure (SMILES)
104.9	4.6	12.5 per cent of control with DMSO alone	1.14 per cent of control with DMSO alone	two moles	32 per cent of control with DMSO alone	16.8 per cent of control with DMSO alone	98.3	3.7		O=C(O)c1ccc2nc(-c3cc(Cl)cc(Cl)c3)oc2c1 [Fx-1006A, 2-(3,5-dichlorophenyl)benzo oxazole-6-carboxylic acid, reference compound]
		25 per cent of control with DMSO alone	1.2 per cent of control with DMSO alone		55 per cent of control with DMSO alone	22 per cent of control with DMSO alone			60	N[C@@H](Cc1cc(I)c(Oc2cc(I)c(O)c(I)c2)c(I)c1)C(=O)O [T4, 3,5,3′,5′-Tetraiodo-L-Thyronine, reference compound]
